Read-outs that look alike come from different tables or passages of the source.
What was measured:
[1] = system: COL1 protein in NHLF cells; assay: RapidFire MS/MS quantification of COL1 (IPQA), standard assay; assay type: cell-based, human; conditions: NHLF, 5 ng/ml TGF–β1, lysed 48 h after TGF–β1, normalized to tubulin, mean ± SD, read-out: MS / MS COL1 IC50
Description: (§1) Cell culture medium was removed and cells were lysed on ice by adding 5 μl / well of pre–cooled protein extraction buffer containing 10 mM Tris–HCl (pH 8.0), 6 M urea and 2 M thiourea and shaking on ice on a plate shaker at 600 rpm for 30 min.
(§2) Cell lysate was transferred to a 96–well polypropylene–PCR–plate. 15 μl / well denaturation buffer (6 M urea, 50 mM ammonium bicarbonate) and 2 μl / well of 50 mM TCEP were added and samples were denatured for 1 h at 60°C using the Veriti 96–well Fast Thermal Cycler System (Applied Biosystem) with a heated lid. Plates were allowed to cool to RT. Subsequently, 2 μl of 100 mM iodoacetamide were added per well to derivatize cysteine residues. Plates were then sealed and vortexed for 2 min in the dark and incubated for 30 min at 37°C in a thermal cycler with a heated lid. 90 μl of 50 mM ammonium bicarbonate pH 7.8 were added, followed by the addition of 10 μl of trypsin at 0.02 μg / ml. Samples were trypsin–digested overnight at 37°C in a thermal cycler with heated lid. […] Samples were desalted under vacuum using an Oasis HLB 96–well (30 μm particle size, 5 mg sorbent / well) reverse phase cartridge according to the manufacturer’s instructions and eluted with 170 μl of 90% acetonitrile, 0.1% formic acid. Samples were dried down with a flow of nitrogen at 40°C, left to cool to RT and re–suspended in 40 μl 5% acetonitrile, 0.1% formic acid on a plate shaker set to 1400 rpm for 5 min. Plates were centrifuged at 4,000 rpm for 10 min and 2 times 12 μl / well of supernatant were transferred into separate 96–well plates (Greiner Bio–One), sealed and stored at 4°C until analyzed by MS / MS.
(§3) Surrogate tryptic peptides were chosen for detection of COL1 (COL1A1), α–SMA (ACTA) and tubulin (TBA1A1) and crude synthetic peptides were purchased from Thermo Fischer. After several rounds of optimization following standard workflows, […] (COL1 / COL1A1), […] (α–SMA / ACTA) and […] LC–MS / MS analysis was performed on a RapidFire™ RF360 system (Agilent Technologies) coupled to an API 5500 (ABSciex) with positive ion electrospray ionization. […] Detection was performed using multiple reaction monitoring (MRM) mode to monitor parent⟶product ion transitions (m / z). […] The source parameters were curtain gas (CUR) nitrogen: 20 psig; collision gas (CAD): 7 psig; ion source gas 1: 50.0 psig; ion source gas 2: 50.0 psig; ion spray voltage (IS): 5500 V; turbo heater temperature (TEM): 600°C; entrance potential (EP): 10V. Peak areas for COL1A1 and ACTA were normalized by dividing by TBA1A peak area.

[2] = system: α–SMA protein in NHLF cells; assay: RapidFire MS/MS quantification of α–SMA (IPQA), standard assay; assay type: cell-based, human; conditions: NHLF, 5 ng/ml TGF–β1, lysed 48 h after TGF–β1, normalized to tubulin, mean ± SD, read-out: MS / MS α–SMA IC50
Description: as §1, §2, §3

[3] = system: normal human lung fibroblasts (NHLF); assay: Phenotypic high-content assay (HCA) of TGF–β1–induced fibroblast–to–myofibroblast differentiation; assay type: cell-based; conditions: NHLF, 5 ng/ml TGF–β1 for 48 h, compound added with TGF–β1, mean ± SD, read-out: HCA IC50
Description: (§4) The plate was washed 3 times with starvation medium, e.g. fibroblast basal medium (FBM, Lonza) supplemented with 0.1% faf BSA, 100 units / ml of penicillin and 100 μg / ml of streptomycin and 250 ng / ml amphotericin B, and then starved for 24 h in 30 μl volume. NHLF were differentiated into myofibroblasts by incubation with 5 ng / ml TGF–β1 (from a stock of 20 μg / ml in 4 mM HCl, 1 mg / ml BSA) for 48 h. Compounds were prepared as 5x stocks in starvation medium and added to the starved cells to a final 1x concentration concomitant with TGF–β1 addition. The final DMSO concentration in the assay was 0.6% in all wells. 48 h after TGF–β1 addition, the medium was removed and the cells were fixed in methanol for 10 min at room temperature (RT). After fixation, cells were washed 3 times with 1 x PBS and either stored at 4°C for up to 3 days or further processed. […] Images were acquired on the Opera Phenix confocal high–content screening system (Perkin Elmer) using the 20–x water immersion lens.
(§5) DAPI stained nuclei were used to identify cells. α–SMA and FN regions were then identified and mapped to the corresponding nuclei for background correction, cell segmentation and cell feature computation to identify, classify and weigh over 400 features per cell. The computed features (S1 Table) comprise, but are not limited to, granularity, intensity, texture, area, shape and solidity of a cell in both α–SMA–and FN–expressing regions. The 0% compound effect (5 ng / ml TGF–β1) and the 100% compound effect (0 ng / ml TGF–β1) controls, were used to train and validate a support vector machine (SVM), a supervised learning model with associated learning algorithm that, once successfully validated, was applied to every cell in every well of the assayed microtiter plate. The SVM allowed autonomous weighting and classification of the characteristics and thus enabled the classifier to decide which characteristics were most relevant for the differentiation of the cell types. […] The classification of each cell was aggregated to a cell type ratio per well, represented as the computed percentage effect value per well indicative of the degree of myofibroblast differentiation. E.g. 100% equals complete myofibroblast differentiation, 0% indicates a pure fibroblast population without any signs of differentiation.

[4] = system: normal human lung fibroblasts (NHLF); assay: Impedance measurement of TGF–β1–induced myofibroblast transition (IPQA), standard assay; assay type: cell-based; conditions: 5 ng/ml TGF–β1, compound added with TGF–β1, impedance at t = 20 h post TGF–β1, mean ± SD, read-out: Impedance IC50
Description: (§6) To measure dynamic cell shape and adhesion changes during fibrotic transdifferentiation, NHLF were seeded at a density of 20,000 cells per well in FGM–2 growth medium (Lonza) containing 100 units / ml of penicillin and 100 μg / ml of streptomycin into E–plates with continued impedance signal measurement (xCELLigence system, Roche Applied Science). After overnight growth, the medium was exchanged for FBM (Lonza) supplemented with 100 units / ml of penicillin and 100 μg / ml of streptomycin and 0.1% faf BSA and cells were starved for 32 h. Compound dilution series were added and myofibroblast transition was induced by adding TGF–β1 at a concentration of 5 ng / ml, followed by continued impedance sampling for up to 48 h. For data analysis, impedance raw traces were normalized to the time point of compound addition and the baseline response (DMSO, non–TGF–β1 treated cells) was subtracted. In some cases, impedance values at defined time points were used to generate concentration–response curves to determine compound potency and efficacy using GraphPad Prism software version 7 (GraphPad Software Inc).

[5] = system: COL1 protein in TGF–β1–induced NHLF myofibroblasts; assay: MS/MS COL1, NHLF myofibroblast reversal assay; assay type: cell-based, human
Description: as §1, §2, §3
(§7) To identify compounds with potential to revert differentiated myofibroblasts to fibroblasts the assay procedures were modified. After 24 h starvation, NHLF cells were stimulated with 5 ng / ml TGF–β1 for 24 h. At t = 24 h TGF–β1 was removed and either vehicle (DMSO) or compounds were added and incubated with the cells for a further 72 h.

[6] = system: TGF–β1–induced NHLF myofibroblasts; assay: cells; assay type: cell-based; conditions: reversal assay: 24 h 5 ng/ml TGF–β1, washed, then compound; impedance data at t = 20 h
Description: as §6, §7

[7] = system: α–SMA protein in TGF–β1–induced NHLF myofibroblasts; assay: MS/MS α–SMA, NHLF myofibroblast reversal assay; assay type: cell-based, human
Description: as §1, §2, §3, §7

[8] = system: normal human lung fibroblasts (NHLF); assay: Nuclear count in the HCA, standard assay; assay type: cell-based; conditions: standard HCA, NHLF, 5 ng/ml TGF–β1, 48 h; read-out: Nuclear count IC50
Description: as §4, §5

[9] = system: rat lung myofibroblasts (RLMyoF); assay: Impedance in primary myofibroblasts from fibrotic rat lungs; assay type: cell-based, Wistar rat; conditions: S8 Fig
Description: Isolation of fibroblasts from the right middle lung lobe of bleomycin–instilled 20–month old Wistar rats. […] On day 0, rats (n = 3) were anesthetized with isoflurane and instilled intra–tracheally with 315 mg of bleomycin sulfate (Baxter) in a volume of 210 μl followed by 210 μl of air to equally distribute the substance in the lung. On day 28, rats were euthanized using isoflurane (5%), exsanguinated and right lung middle lobes (RML) were collected in a sterile culture dish on ice in Dulbecco's Modified Eagle's Medium (DMEM) / F12 (1:1, Thermo Fisher), minced, washed 3 times with DMEM / F12 medium and digested with 0.1% collagenase (Collagenase II–S: Invitrogen) and 15 μg / ml DNase (DNase I, Sigma) in DMEM / F12 medium in a shaking water bath at 37°C for 15 min. Digests were separated by gravity and the supernatant was transferred to a new vial supplemented with 4 volumes of ice–cold starter medium consisting of DMEM / F12 (1:1), 10% (v / v) fetal bovine serum (PAA), 1% (v / v) penicillin / streptomycin 100 U / 100 μg / ml (Thermo Fisher), and insulin / transferrin / sodium selenite (Thermo Fisher). Then, the cell suspension was passed through a cell strainer by centrifugation at 1600 rpm at 4°C for 10 min. The pelleted cells were resuspended in pre–warmed (37°C) starter medium and seeded in a cell culture dish. After 60 minutes, the medium was replaced by new starter medium. After 24 hours, the medium was exchanged for DMEM / F12 to which 10% (v / v) fetal bovine serum and 1% penicillin / streptomycin was added.

With CCCCCCCC(=O)c1c(O)cc(O)cc1CC(=O)OCC [Csn–B] the IC50 [1] was over 50 µM, the IC50 [2] was over 50 µM and the IC50 [3] was 39 µM. For the same compound, the IC50 [4] was over 50 µM.
With O=C1c2ccc(Nc3ccc(F)cc3F)cc2CCc2ccc(OC[C@H](O)CO)cc21 [L–skepinone] the IC50 ([1]; Homo sapiens, Col1, 48 h) was 1.5 µM, the IC50 ([2]; Homo sapiens) was 0.96 ± 0.44 µM and the IC50 ([3]; Homo sapiens, Fibroblast, 48 h) was 23 µM. It also gave an IC50 ([4]; Fibroblast) of 5 µM.
For CC[C@@H](C(=O)[C@@H](C)[C@@H](O)[C@H](C)[C@@H]1O[C@@H]([C@@H](CC)C(=O)O)CC[C@@H]1C)[C@H]1O[C@]2(C=C[C@@H](O)[C@]3(CC[C@@](C)([C@H]4CC[C@](O)(CC)[C@H](C)O4)O3)O2)[C@H](C)C[C@@H]1C [Salinomycin], the IC50 ([1]; Homo sapiens, Col1) was 1.2 µM, the IC50 ([2]; Homo sapiens) was 0.29 ± 0.3 µM and the IC50 ([3]; Homo sapiens, Fibroblast) was 15.8 µM. For the same compound, the IC50 ([4]; Fibroblast) was 1.5 µM.
CCn1c(-c2nonc2N)nc2cnc(Oc3cccc(NC(=O)c4ccc(OCCN5CCOCC5)cc4)c3)cc21 [GSK–269962] showed an IC50 ([5]; reversal assay: 24 h 5 ng/ml TGF–β1, washed, 72 h compound, normalized to tubulin, read-out: MS / MS COL1 IC50) of 0.537 µM, an IC50 [1] of 3.1 µM and an IC50 [6] of over 10 µM. It also gave an IC50 [2] of 0.022 ± 0.001 µM, an IC50 ([7]; reversal assay: 24 h 5 ng/ml TGF–β1, washed, 72 h compound, normalized to tubulin, read-out: MS / MS α–SMA IC50) of 0.035 µM and an IC50 [3] of 0.24 ± 0.27 µM. The IC50 [4] was 1.01 µM, the IC50 [8] was over 50 µM and the IC50 ([9]; read-out: RLMyoF impedance IC50 (3 h), impedance at 3 h) was 0.011 µM. The IC50 ([9]; read-out: RLMyoF impedance IC50 (20 h), impedance at 20 h) was 0.133 µM.
In the case of C=C[C@@]1(C)CC(=O)[C@]2(O)[C@@]3(C)[C@@H](O)CCC(C)(C)[C@@H]3[C@H](O)[C@H](OC(C)=O)[C@@]2(C)O1 [Forskolin], the IC50 ([5]; Homo sapiens, Col1, NHLF pre–stimulated 24 h with 5 ng/ml TGF–β1, representative experiment, S7 Fig E, read-out: IC50, reversal of COL1 (curve of a single experiment)) is reported as 1.73 µM and the IC50 ([7]; Homo sapiens, NHLF pre–stimulated 24 h with 5 ng/ml TGF–β1, representative experiment, S7 Fig D, read-out: IC50, reversal of α–SMA (curve of a single experiment)) is reported as 5.12 µM.
For CC(C)NC[C@@H](C(=O)N1CCN(c2ncnc3c2[C@H](C)C[C@H]3O)CC1)c1ccc(Cl)cc1 [Ipatasertib], the IC50 ([1]; Homo sapiens, Col1) was over 50 µM, the IC50 ([2]; Homo sapiens) was 25 µM and the IC50 ([3]; Homo sapiens, Fibroblast, 48 h) was 22 µM. It also gave an IC50 ([4]; Fibroblast) of 43 µM.
Nc1[nH]nc2nnc(-c3c(-c4ccccc4)nn4ccccc34)cc12 [FR180204] was tested, and the IC50 [1] was 36 µM, the IC50 [2] was 49 µM and the IC50 [3] was over 46 µM. For the same compound, the IC50 [4] was 50 µM.
CCOc1cc(N2CCC(O)CC2)ccc1Nc1ncc2c(n1)N(C)c1ccccc1C(=O)N2C [XMD 8–92] gave an IC50 [1] of 5.4 µM, an IC50 [2] of 2.4 µM and an IC50 [3] of 12 µM. The IC50 [4] was 4.4 µM.
For Cn1c(=O)c(Oc2ccc(F)cc2F)cc2cnc(NC(CCO)CCO)nc21 [Pamapimod], the IC50 ([1]; Homo sapiens, Col1) was over 50 µM, the IC50 ([2]; Homo sapiens) was 34 µM and the IC50 ([3]; Homo sapiens, Fibroblast, 48 h) was over 46 µM. For the same compound, the IC50 ([4]; Fibroblast) was 19 µM.

Source: PMC6261607, “Novel high–throughput myofibroblast assays identify agonists with therapeutic potential in pulmonary fibrosis that act via EP2 and EP4 receptors” (PLoS ONE, 2018)
